In paper PMC11729428, “New Potent Inhibitor of Transforming Growth Factor-Beta (TGFβ) Signaling that is Efficacious against Microsatellite Stable Colorectal Cancer Metastasis in Combination with Immune Checkpoint Therapy in Mice” (ACS Pharmacology & Translational Science, 2024):
Read-outs that look alike come from different tables or passages of the source.

How the values were obtained:
[1] = tested on: panel of 97 wild-type and disease-relevant mutant kinases; assay type: binding; settings: for Additional kinases showing >85% competitive binding: besides ALK5 and ALK4/ACVR1B
Text: We also assessed the selectivity of these three inhibitors toward a panel of 97 wild-type and disease-relevant mutant kinases, distributed throughout various kinase families.
Figure 2 Selectivity of HYL001. […] TK: tyrosine kinases; TKL: tyrosine kinase-like kinases; STE: serine/threonine kinases; CK1: casein kinase 1 family; AGC: serine/threonine kinases, regulated by secondary messengers such as cyclic AMP (PKA) or lipids (PKC); CAMK: Ca^2+/calmodulin-dependent protein kinase family; and CMGC: primarily proline-directed serine/threonine kinases (CDKs, GSKs, MAP kinases, and CDK-like kinases).
5. Methods for In vitro characterizations of HYL001
Kinase affinity and selectivity
The affinity of the ALK5 inhibitor HYL001 was determined for the ALK kinase family using the […]
DNA-tagged kinases and immobilized assay ligands, using quantitative PCR —run by Eurofins/DiscoveryX (Birmingham AL, USA). Dissociation constants were calculated by measuring the amount of kinase captured on the solid support as a function of the test compound concentration. Kd values were obtained by an 11 -point […]
(BMPR1A), ALK4 (ACVR1B), ALK6 (BMPR1B), ACVR2B and TGFβ R2. In addition, this technology was […]
The strength of competitive binding, defined as the percentage of binding inhibition of kinases to assay ligan d, was visualized using the TREEspot software (DiscoverRx Corporation) and a selectivity score was calculated (the fraction of non -mutated kinases tested with competitive binding inhibition above threshold percentages 65 […]

[2] = tested on: TGFβ pathway; experiment: Cellular TGFβ reporter (12xCAGA luciferase) assay in HEK293T cells; assay type: cell-based; settings: for IC50: Homo sapiens, HEK-293T, 5 ng/mL recombinant TGFβ, 12xCAGA luciferase reporter, read-out: cellular inhibition TGFβ pathway IC50
Method: We next tested the three inhibitors in a cellular assay, using a luciferase-based reporter assay[20] in HEK293T cells in the presence or absence of inhibitors (Table 1). Upon activation of the endogenous receptors by 5 ng/mL recombinant TGFβ, phosphorylation of the TGFBR1 triggers phosphorylation of the intracellular mediators SMAD2/3, and subsequent nuclear translocation with SMAD4. The SMAD2/3-SMAD4 complex binds to the TGFβ response element (12xCAGA) allowing the transcription of the Firefly luciferase reporter.
HEK293T cells were purchased from the ATCC and cultured in DMEM supplemented with L-glutamine and 10% fetal bovine serum (Life Technologies) at 37 °C and 5% CO2. The cells were seeded in 24-well plates and transfected with plasmids encoding 12xCAGA-Firefly_Luc and Tk-Renilla_Luc (75 and 10 ng per well, respectively) using polyethylenimine (Polysciences) as the transfection reagent. After 7 h, the medium was replaced with starvation medium (DMEM + 0.05% FBS). […] Bioluminescence was measured in a Berthold Lumat LB6507 luminometer (18 μL of reagents, 10 s measurements). Results were normalized to those of the Renilla transfection control. Inhibition–concentration curves were analyzed in Prism Graphpad Prism (v10.1.1) with a least-squares regression nonlinear fit.

[3] = Metabolic stability in human cryopreserved hepatocytes; assay type: in vitro ADME
Method: (§1) Metabolic stability in human primary hepatocytes
This assay was performed at Sai Life Sciences Lt. (Telangana, India) with human suspension hepatocytes […]
(§2) All other reactions were initiated by […]
analysis by LC-MS/MS, using MRM mode. […]
related to phase I and phase II metabolism, respectively.
The PARs were used for calculation of metabolic stability. The 0 min area ratio was considered as 100%. The […]
incubation volume / number of cells (in millions) x K e. To calculate into full body context, the values of 120 […]

[4] = Buffer stability (hepatocyte assay control); assay type: physicochemical
Method: Similarly, buffer was added to recovery and stability samples. Next,
Samples were monitored for
parent compound using multiple reaction monitoring (MRM) mode. […]
as §1
This assay was performed at Sai Life Sciences Lt. (Telangana, India) with human suspension hepatocytes
as §2

[5] = tested on: mouse tumor organoids (MTOs), established CRC liver metastases; experiment: Treatment of established CRC liver metastases, alone or with anti-PD1; assay type: in vivo, mice; settings: for Cure of established liver metastases as monotherapy: 0.1× doses: 80, 82 and 71 mg/kg BID for galunisertib, vactosertib and HYL001, anti-PD1 IP alone
Method: Encouraged by the increased potency observed in vitro and in the inhibition of liver metastatic initiation in vivo, we evaluated the ability of a relatively low HYL001 dose to help overcome established liver metastases when combined with immune checkpoint inhibition. In this experimental set up, a low number of MTO cells (25K) was injected in the portal vein (leaving the spleen unaltered), and liver metastases were allowed to develop and grow for 15 days before treatment with TGFβ inhibitors was initiated. This was done in combination with 3–4 intraperitoneal (IP) injections of immune-checkpoint inhibition therapy (anti-PD1 or isotype control antibody), spaced 2–3 days (Figure 6A,B).
Figure 6 HYL001 efficacy in dual immunotherapy against established CRC liver metastases. (A) Overview of experimental timing: dual treatment between days 14 and 28 after MTO injection (TGFβ inhibitor doses were all 0.1 ×); follow-up until humane end point. Below: numbers of countable liver lesions after sacrifice. Statistical comparisons to the vehicle + IgG2a control (above) or the vehicle+αPD1 condition (below) by two-tailed Mann–Whitney U test; ns: P ≥ 0.05; *P < 0.05; **P < 0.01; ***P < 0.001; ****P < 0.0001. (B) Kaplan–Meier curves indicate the survival (until humane end point) of mice under each treatment; P values were computed by the Mantel–Cox test (Log-rank).
For all tumor cell injections, C57BL/6J (or athymic BALB/C nu/nu) mice were purchased from Janvier at 6 weeks of age and injected at 7–8 weeks. Sex was matched with the origin of the tumor organoids, i.e., males for this study. Intrasplenic or portal vein injections, respectively, with 31G needles on 1 mL insulin syringes or 33G needles on a 50/100 μL Hamilton syringe, were used for liver colonization by the introduction of dissociated organoids (single cells) into the portal circulation. MTOs were cultured in standard six-well plates for 4 days and trypsinized as described before.[5] The resulting single cell suspension in HBSS (Lonza) was filtered through 100 and 40 μm mesh (to remove clumps of cells and aggregated debris). Intrasplenic injections were performed, as previously described,[5],[8],[9] using 2 × 10^5 cells in 70 μL HBSS. For portal vein injections, […] in 25 μL HBSS were injected directly into the portal vein.[5] Mice were euthanized at 3–5 weeks or at the humane end point (advanced metastasis-associated morbidity causing or threatening to cause severe suffering) to obtain survival-type data. Visible liver metastases were counted, and data were analyzed using GraphPad Prism software (v.7.03).
Gavage treatments were performed by technicians from the animal facility, not involved in this study (blinded). For checkpoint immunotherapy or dual treatments, we used rat anti-PD-1 (RMP1–14; Leinco P372) or rat IgG2a (Leinco I-1177) isotype-control antibodies.

[6] = 10 μM compound, 90 kinases tested
[7] = human, hepatocytes, 0 h, pH 7.4
[8] = human, hepatocytes, 5 min, pH 7.4
[9] = human, hepatocytes, 0.25 h, pH 7.4
[10] = human, hepatocytes, 0.5 h, pH 7.4
[11] = human, hepatocytes, pH 7.4, Disappearance T1/2

SMILES | Number of kinase interactions (>65% competitive binding inhibition) [1, 6] | Additional kinases showing >85% competitive binding [1] | IC50 [2] [nM] | Cure of established liver metastases as monotherapy [5] | Parent compound remaining [3, 7] [%] | Parent compound remaining [3, 8] [%] | Parent compound remaining [3, 9] [%] | Parent compound remaining [3, 10] [%] | CLint scaled ([3]; human, hepatocytes, pH 7.4) [mL/min/kg] | half-life [3, 11] [min] | Buffer Stability ([4]; 0 min, pH 7.4) [%] | Buffer Stability ([4]; 60 min, pH 7.4) [%] | further results
Cc1cccc(-c2[nH]c(CNc3ccccc3F)nc2-c2ccc3ncnn3c2)n1 [vactosertib, N -((4-([1,2,4]Triazolo[1,5-a]Pyridin-6-Yl)-5-(6-Methylpyridin-2-Yl)-1 H -Imidazole-2-Yl)Methyl)-2-Fluoroaniline] | 24 | ERBB2, FGFR2/3, KIT, MEK1/2, PDGFRA/B, SRC, and VEGFR2 | 10 | not efficacious | – | – | – | – | – | – | – | – | CLint scaled ([3]; hepatocytes (suspension, cryopreserved), pH 7.4, scaled using 120 M cells per g liver, liver weight 20 g/kg (human), read-out: Scaled in vivo Clint): 30.1 mL/min/kg; Parent compound remaining ([3]; human hepatocytes, incubation time 0 min): 100%; Parent compound remaining ([3]; human hepatocytes, incubation time 5 min): 60%; Parent compound remaining ([3]; human hepatocytes, incubation time 15 min): 59%; Parent compound remaining ([3]; human hepatocytes, incubation time 30 min): 52%; Parent compound remaining ([3]; human hepatocytes, incubation time 60 min): < 50%; Parent compound remaining ([3]; human hepatocytes, incubation time 60 min, listed as Vactosertib): 39%; half-life ([3]; human, hepatocytes (suspension, cryopreserved), pH 7.4, human hepatocytes, read-out: Disappearance T1/2): 55.3 min; Buffer Stability ([4]; 0 min): 100%; Buffer Stability ([4]; 60 min): 84%
Cc1cccc(-c2nn3c(c2-c2ccnc4ccc(C(N)=O)cc24)CCC3)n1 [galunisertib] | 10 | – | 157 | not efficacious | 100 | 97 | 92 | 90 | 10.4 | > 60 | 100 | 105 | Parent compound remaining ([3]; human, hepatocytes, 1 h, pH 7.4): 76%; half-life ([3]; human, hepatocytes, pH 7.4, Assumed T1/2): 160 min
Cc1cccc(-c2nn3c(c2-c2ccnc4ccc(O)cc24)CCC3)n1 [HYL001, 4-(2-(6-Methylpyridin-2-yl)-5,6-dihydro-4H-pyrrolo[1,2-b]pyrazol-3-yl)quinolin-6-ol] | 13 | ABL-1, CSNK1G2, and p38α | 72 | not efficacious | 100 | 67 | 59 | 56 | 32.1 | 51.8 | 100 | 117 | Number of kinase interactions (>65% competitive binding inhibition) ([1]; 0.3 μM compound, 22 kinases tested): 1; Number of kinase interactions (>65% competitive binding inhibition) ([1]; 3 μM compound, 22 kinases tested): 5; Selectivity score S(>65_10), fraction of wildtype kinases inhibited >65% ([1]; 10 μM compound): 0.144; Selectivity score S(>90_10), fraction of wildtype kinases inhibited >90% ([1]; 10 μM compound): 0.1; Selectivity score S(>65_10), fraction of wildtype kinases inhibited >65% ([1]; 10 μM compound, listed as HYL): 0.14; Fold higher potency compared to galunisertib in TGFβ reporter assay [2]: ~2 fold; Tumor burden in numbers of liver nodules ([5]; dual therapy with anti-PD1): marked overall reduction; Mice cured at the end point (number) ([5]; dual therapy with anti-PD1, 71 mg/kg BID): 8/10; Mice cured at the end point ([5]; dual therapy with anti-PD1, 71 mg/kg BID, surviving 2.5 months after injection): up to 80%
